How the values were obtained:
[1] = biological target: T1, human CYP11B2 (Homo sapiens, UniProt P19099); assay: G-402 cellular enzyme assay, human CYP11B2 (aldosterone release, HTRF); type: cell-based; details: G-402 cells, 1 μM Deoxycorticosterone
T1 construct: expressed in transfected cells
T1 sequence (P19099 25-503): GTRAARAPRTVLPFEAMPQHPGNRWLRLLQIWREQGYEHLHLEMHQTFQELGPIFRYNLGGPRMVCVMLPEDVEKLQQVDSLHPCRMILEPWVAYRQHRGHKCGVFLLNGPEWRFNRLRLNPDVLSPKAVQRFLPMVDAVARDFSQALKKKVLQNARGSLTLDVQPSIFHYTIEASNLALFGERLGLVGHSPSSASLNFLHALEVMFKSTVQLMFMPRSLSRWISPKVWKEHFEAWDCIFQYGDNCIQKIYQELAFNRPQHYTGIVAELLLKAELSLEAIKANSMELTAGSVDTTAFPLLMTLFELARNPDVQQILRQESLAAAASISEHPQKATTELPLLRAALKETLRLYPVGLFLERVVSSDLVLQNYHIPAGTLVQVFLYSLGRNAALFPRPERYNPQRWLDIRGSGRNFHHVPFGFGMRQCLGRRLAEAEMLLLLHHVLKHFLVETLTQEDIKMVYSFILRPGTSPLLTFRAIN
Method in brief: (§1)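 Steroid output from supernatants, quantified by HTRF as cortisol for CYP11B1 or aldosterone for CYP11B2, gave EC50 values by least-squares 4-parameter MMF fitting against inhibitor concentration. Stably transfected G-402 cells carrying the human enzyme received 1 μM deoxycortisol or 1 μM deoxycorticosterone respectively, 16 h, DMEM/F12 with 2.5% charcoal-stripped FCS.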

[2] = biological target: T2, human CYP11B1 (Homo sapiens, UniProt P15538); assay: G-402 cellular enzyme assay, human CYP11B1 (cortisol release, HTRF); type: cell-based; details: G-402 cells, 1 μM Deoxycortisol
T2 construct: expressed in transfected cells
T2 sequence (P15538 25-503): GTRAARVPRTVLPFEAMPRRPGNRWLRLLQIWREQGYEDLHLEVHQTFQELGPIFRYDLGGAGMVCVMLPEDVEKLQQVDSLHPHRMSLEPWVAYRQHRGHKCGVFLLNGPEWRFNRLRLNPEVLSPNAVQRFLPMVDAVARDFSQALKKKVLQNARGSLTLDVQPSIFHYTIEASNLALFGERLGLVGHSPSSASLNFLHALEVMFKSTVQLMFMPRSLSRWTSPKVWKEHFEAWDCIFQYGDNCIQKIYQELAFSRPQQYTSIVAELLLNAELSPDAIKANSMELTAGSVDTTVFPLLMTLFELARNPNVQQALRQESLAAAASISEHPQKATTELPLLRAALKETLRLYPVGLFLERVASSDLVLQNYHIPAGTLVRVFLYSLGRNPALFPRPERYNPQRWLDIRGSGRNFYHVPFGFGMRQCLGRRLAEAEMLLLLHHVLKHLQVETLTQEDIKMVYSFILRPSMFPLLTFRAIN
Method in brief: as §1

Row | EC50 [1] [nM] | EC50 [2] [nM] | SMILES
1 | 92 | 803 | O=C1c2ccc(Cl)cc2CCN1c1cncc(Cc2cc(Cl)ccc2Cl)c1 [Example 217, 6-Chloro-2-[5-(2,5-dichloro-benzyl)-pyridin-3-yl]-3,4-dihydro-2H-isoquinolin-1-one]
2 | 1550 | 14300 | CCS(=O)(=O)Nc1cncc(N2CCc3cc(Cl)ccc3C2=O)c1 [Example 218, Ethanesulfonic acid [5-(6-chloro-1-oxo-3,4-dihydro-1H-isoquinolin-2-yl)-pyridin-3-yl]-amide]
3 | 2220 | 17600 | O=C1c2ccc(Cl)cc2CCN1c1cncc(NS(=O)(=O)c2ccccc2)c1 [Example 219, N-[5-(6-Chloro-1-oxo-3,4-dihydro-1H-isoquinolin-2-yl)-pyridin-3-yl]-benzenesulfonamide]
4 | 2160 | 10100 | O=C1c2ccc(Cl)cc2CCN1c1cncc(NS(=O)(=O)C2CC2)c1 [Example 221, Cyclopropanesulfonic acid [5-(6-chloro-1-oxo-3,4-dihydro-1H-isoquinolin-2-yl)-pyridin-3-yl]-amide]
5 | 80.3 | 343 | O=C1c2ccc(Cl)cc2CCN1c1cncc(NCc2ccc(F)cc2)c1 [Example 222, 6-Chloro-2-[5-(4-fluoro-benzylamino)-pyridin-3-yl]-3,4-dihydro-2H-isoquinolin-1-one]
6 | 116 | 1420 | O=C1c2ccc(Cl)cc2CCN1c1cncc(NCC(F)(F)F)c1 [Example 223, 6-Chloro-2-[5-(2,2,2-trifluoro-ethylamino)-pyridin-3-yl]-3,4-dihydro-2H-isoquinolin-1-one]
7 | 37.2 | 293 | O=C1c2ccc(Cl)cc2CCN1c1cncc(N2CCOCC2)c1 [Example 224, 6-Chloro-2-(5-morpholin-4-yl-pyridin-3-yl)-3,4-dihydro-2H-isoquinolin-1-one]
8 | 53.4 | 3400 | Cn1nccc1CNc1cncc(N2CCc3cc(Cl)ccc3C2=O)c1 [Example 226, 6-Chloro-2-{5-[(2-methyl-2H-pyrazol-3-ylmethyl)-amino]-pyridin-3-yl}-3,4-dihydro-2H-isoquinolin-1-one]
9 | 263 | 12400 | Cn1cnc(CNc2cncc(N3CCc4cc(Cl)ccc4C3=O)c2)c1 [Example 228, 6-Chloro-2-{5-[(1-methyl-1H-imidazol-4-ylmethyl)-amino]-pyridin-3-yl}-3,4-dihydro-2H-isoquinolin-1-one]
10 | 204 | 745 | O=C1c2ccc(Cl)cc2CCN1c1cncc(-c2cn[nH]c2)c1 [Example 229, 6-Chloro-2-[5-(1H-pyrazol-4-yl)-pyridin-3-yl]-3,4-dihydro-2H-isoquinolin-1-one]
11 | 7 | 149 | Cc1noc(C)c1-c1cncc(N2CCc3cc(Cl)ccc3C2=O)c1 [Example 230, 6-Chloro-2-[5-(3,5-dimethyl-isoxazol-4-yl)-pyridin-3-yl]-3,4-dihydro-2H-isoquinolin-1-one]
12 | 23.3 | 469 | O=C1c2ccc(Cl)cc2CCN1c1cncc(-c2cccc(F)c2)c1 [Example 231, 6-Chloro-2-[5-(3-fluoro-phenyl)-pyridin-3-yl]-3,4-dihydro-2H-isoquinolin-1-one]
13 | 26.6 | 1350 | O=C1c2ccc(Cl)cc2CCN1c1cncc(-c2ccc(F)c(F)c2)c1 [Example 232, 6-Chloro-2-[5-(3,4-difluoro-phenyl)-pyridin-3-yl]-3,4-dihydro-2H-isoquinolin-1-one]
14 | 271 | 21600 | O=C1c2ccc(Cl)cc2CCN1c1cncc(-c2cc(F)cc(F)c2)c1 [Example 233, 6-Chloro-2-[5-(3,5-difluoro-phenyl)-pyridin-3-yl]-3,4-dihydro-2H-isoquinolin-1-one]
15 | 44.5 | 1580 | O=C1c2ccc(Cl)cc2CCN1c1cncc(-c2cccc(Cl)c2)c1 [Example 234, 6-Chloro-2-[5-(3-chloro-phenyl)-pyridin-3-yl]-3,4-dihydro-2H-isoquinolin-1-one]
16 | 22.7 | 221 | O=C1c2ccc(Cl)cc2CCN1c1cncc(-c2cc(F)ccc2F)c1 [Example 235, 6-Chloro-2-[5-(2,5-difluoro-phenyl)-pyridin-3-yl]-3,4-dihydro-2H-isoquinolin-1-one]

Row | EC50 [1] [nM] | EC50 [2] [nM] | SMILES
17 | 133 | 4390 | O=C1c2ccc(Cl)cc2CCN1c1cncc(-c2cccc(C(F)(F)F)c2)c1 [Example 236, 6-Chloro-2-[5-(3-trifluoromethyl-phenyl)-pyridin-3-yl]-3,4-dihydro-2H-isoquinolin-1-one]
18 | 204 | 3610 | O=C1c2ccc(Cl)cc2CCN1c1cncc(-c2cccc(OC(F)(F)F)c2)c1 [Example 237, 6-Chloro-2-[5-(3-trifluoromethoxy-phenyl)-pyridin-3-yl]-3,4-dihydro-2H-isoquinolin-1-one]
19 | 104 | 5990 | Cn1nccc1-c1cncc(N2CCc3cc(Cl)ccc3C2=O)c1 [Example 238, 6-Chloro-2-[5-(2-methyl-2H-pyrazol-3-yl)-pyridin-3-yl]-3,4-dihydro-2H-isoquinolin-1-one]
20 | 10.5 | 90 | Cn1cc(-c2cncc(N3CCc4cc(Cl)ccc4C3=O)c2)cn1 [Example 239, 6-Chloro-2-[5-(1-methyl-1H-pyrazol-4-yl)-pyridin-3-yl]-3,4-dihydro-2H-isoquinolin-1-one]
21 | 115 | 3270 | O=C1c2ccc(Cl)cc2CCN1c1cncc(-c2ccc(Cl)c(F)c2)c1 [Example 240, 6-Chloro-2-[5-(4-chloro-3-fluoro-phenyl)-pyridin-3-yl]-3,4-dihydro-2H-isoquinolin-1-one]
22 | 25.6 | 206 | O=C1c2ccc(Cl)cc2CCN1c1cncc(-c2ccccc2C(F)(F)F)c1 [Example 242, 6-Chloro-2-[5-(2-trifluoromethyl-phenyl)-pyridin-3-yl]-3,4-dihydro-2H-isoquinolin-1-one]
23 | 268 | 3340 | O=C1c2ccc(Cl)cc2CCN1c1cncc(-c2cnoc2)c1 [Example 243, 6-Chloro-2-(5-isoxazol-4-yl-pyridin-3-yl)-3,4-dihydro-2H-isoquinolin-1-one]
24 | 1860 | 4690 | Cn1ccnc1-c1cncc(N2CCc3cc(Cl)ccc3C2=O)c1 [Example 244, 6-Chloro-2-[5-(1-methyl-1H-imidazol-2-yl)-pyridin-3-yl]-3,4-dihydro-2H-isoquinolin-1-one]
25 | 1.1 | 25.7 | Cc1cnn(C)c1-c1cncc(N2CCc3cc(Cl)ccc3C2=O)c1 [Example 245, 6-Chloro-2-[5-(2,4-dimethyl-2H-pyrazol-3-yl)-pyridin-3-yl]-3,4-dihydro-2H-isoquinolin 1-one]
26 | 102 | 546 | Cn1ncc(C#N)c1-c1cncc(N2CCc3cc(Cl)ccc3C2=O)c1 [Example 246, 5-[5-(6-Chloro-1-oxo-3,4-dihydro-1H-isoquinolin-2-yl)-pyridin-3-yl]-1-methyl-1H-pyrazole-4-carbonitrile]
27 | 4580 | 7470 | CC(C)C(=O)Nc1cncc(N2CCc3cc(Cl)ccc3C2=O)c1 [Example 247, N-[5-(6-Chloro-1-oxo-3,4-dihydro-1H-isoquinolin-2-yl)-pyridin-3-yl]-isobutyramide]
28 | 3220 | 7600 | O=C(Nc1cncc(N2CCc3cc(Cl)ccc3C2=O)c1)c1ccc(F)cc1 [Example 249, N-[5-(6-Chloro-1-oxo-3,4-dihydro-1H-isoquinolin-2-yl)-pyridin-3-yl]-4-fluoro-benzamide]
29 | 4440 | 12300 | O=C(Nc1cncc(N2CCc3cc(Cl)ccc3C2=O)c1)NC1CCCCC1 [Example 250, 1-[5-(6-Chloro-1-oxo-3,4-dihydro-1H-isoquinolin-2-yl)-pyridin-3-yl]-3-cyclohexyl-urea]
30 | 5880 | 15800 | O=C(Nc1cncc(N2CCc3cc(Cl)ccc3C2=O)c1)Nc1cccc(C(F)(F)F)c1 [Example 251, 1-[5-(6-Chloro-1-oxo-3,4-dihydro-1H-isoquinolin-2-yl)-pyridin-3-yl]-3-(3-trifluoromethyl-phenyl)-urea]
31 | 272 | 9760 | O=C1c2ccc(Cl)cc2CCN1c1cncc(O)c1 [Example 252, 6-Chloro-2-(5-hydroxy-pyridin-3-yl)-3,4-dihydro-2H-isoquinolin-1-one]

Source: patent US9133158B2, “Bicyclic dihydroisoquinoline-1-one derivatives” (Hoffmann-La Roche Inc., priority 2011, dated 2015)
